Experimental data as given in PMC12715762, “Discovery of VU6052254: A Novel, Potent M1 Positive Allosteric Modulator” (ACS Chemical Neuroscience, 2025).
Values belong to the compound of their own block, whether it stands above or below them.

How the values were obtained:
[1] = Human Phase I; cited from earlier work
[2] = hepatocyte metabolite stability (monkey); type: in vitro ADME; conditions: Monkey hepatocytes, 4 h incubation of the parent PAM
Excerpt: (§1) However, the hepatocyte stability of 7 was far better than 1 for rat, dog, and human and was therefore poised for further advancement of compound characterization.

[3] = multispecies hepatocyte stability, summary across species; type: in vitro ADME, rat, dog, monkey, human
Excerpt: as §1

[4] = hepatocyte metabolite stability (human); type: in vitro ADME; conditions: Human hepatocytes, 4 h incubation of the parent PAM
Excerpt: From this exercise, a single compound emerged, harboring a tertiary hydroxyl moiety at the 7-position of the indazole, VU6052254 (henceforth PAM 7).
as §1

[5] = kinetic / aqueous solubility; type: physicochemical; conditions: result in words
[6] = dog MTD study and high-dose rat 14-day toxicology study; result in words; cited from earlier work
Sprague-Dawley rats = test: CFC with scopolamine challenge; type: in vivo, rat

% Total Peak Area, oxidative metabolite (label = metabolite) [2]: 74.3%
level of oxidative metabolite generated (label = metabolite) ([3]; across all four species (rat, dog, monkey, human hepatocytes)): > 23%
% Total Peak Area, oxidative metabolite (label = metabolite) [4]: 34.9%
SMILES: Cn1cc2c(-c3cc(F)c(CN4C(=O)c5cccnc5C4O)c(F)c3)cccc2n1 (stereo not shown) [compound 2]
metabolite share of plasma AUC of total VU0467319 drug administered [1]: > 50%

SMILES: [2H]C1([2H])c2ncccc2C(=O)N1Cc1c(F)cc(-c2cccc3nn(C([2H])([2H])[2H])cc23)cc1F [compound 5]
aqueous solubility [5]: low aqueous solubility
amount of oxidative metabolism at high dose [6]: comparable to that of VU0467319 (1)

SMILES: CN1[C@@H]2C[C@@H](OC(=O)[C@H](CO)c3ccccc3)C[C@H]1[C@@H]1O[C@@H]12 [scopolamine]
disruption of acquisition of CFC (Sprague-Dawley rats; 0.25 mg/kg IP, rat): ~65%
effect of scopolamine alone on acquisition of CFC (Sprague-Dawley rats; 0.26 mg/kg as printed, result in words): robust decrease in the acquisition of CFC

% Total Peak Area, oxidative metabolite (label = metabolite) [2]: 21%
level of oxidative metabolite generated (label = metabolite) ([3]; across species except for monkey): < 10%
SMILES: [2H]C1(O)c2ncccc2C(=O)N1Cc1c(F)cc(-c2cccc3nn(C([2H])([2H])[2H])cc23)cc1F (stereo not shown) [compound 6]
